The subject of assay [1] is human monocyte stimulated cytokine production (TNF-α). The experiment in a line: Monocyte assay (LPS-stimulated TNF-α production). It is filed as cell-based. Particulars: 24 h, 200 ng/mL LPS, TNF-α by ELISA. The procedure, abridged: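 TNF-α release was measured by ELISA after 24 hrs at 37 C. Cells were stimulated with 200 ng/mL E. coli LPS, with compound added 30 minutes beforehand (0.1% DMSO vehicle). Cells were Ficoll/MACS-isolated CD14+ human monocytes adhered at 1×10^6 cells/mL, and viability was checked by trypan blue.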

In assay [2] the target is T1, Recombinant human IKKβ (residues 1-737) (Homo sapiens, UniProt O14920).
T1 construct: Recombinant human IKKβ (residues 1-737); GST (C); made in house
T1 sequence (O14920 1-737): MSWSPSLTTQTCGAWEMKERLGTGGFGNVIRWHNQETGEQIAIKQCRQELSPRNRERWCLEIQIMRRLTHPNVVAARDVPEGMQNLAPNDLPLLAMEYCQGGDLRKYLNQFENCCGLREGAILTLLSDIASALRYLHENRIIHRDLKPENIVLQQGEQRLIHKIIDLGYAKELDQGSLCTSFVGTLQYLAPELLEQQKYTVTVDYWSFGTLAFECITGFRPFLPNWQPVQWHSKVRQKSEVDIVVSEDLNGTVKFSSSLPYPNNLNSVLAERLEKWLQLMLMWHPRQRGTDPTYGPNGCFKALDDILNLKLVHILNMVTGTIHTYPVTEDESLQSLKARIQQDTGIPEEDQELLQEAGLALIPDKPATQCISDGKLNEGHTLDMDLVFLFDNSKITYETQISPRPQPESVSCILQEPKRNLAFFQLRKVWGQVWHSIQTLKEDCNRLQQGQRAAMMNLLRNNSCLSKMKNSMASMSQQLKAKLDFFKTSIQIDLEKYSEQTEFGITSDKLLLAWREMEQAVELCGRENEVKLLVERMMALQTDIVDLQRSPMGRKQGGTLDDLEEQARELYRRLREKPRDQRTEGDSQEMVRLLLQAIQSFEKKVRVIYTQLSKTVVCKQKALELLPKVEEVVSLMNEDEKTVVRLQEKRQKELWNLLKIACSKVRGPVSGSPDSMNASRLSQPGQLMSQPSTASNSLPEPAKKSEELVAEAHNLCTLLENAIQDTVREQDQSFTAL
Put plainly: IKK2 assay (TR-FRET). The format is biochemical. Particulars: ATP 1 μM final, read-out: pIC50 against IKK2 (converted). The procedure, abridged: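 TR-FRET readout (665 nm over 620 nm Eu reference) of GST-IB Ser32/36 phosphorylation after 60 min detection. Reaction: 1 μM ATP, 25 nM substrate, 0.5-5 nM GST-fused IKKβ 1-737 from baculovirus, pH 7.4 HEPES buffer, 1.7% DMSO, 15 min room temperature, EDTA-terminated.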
Background: In TR-FRET formats the signal depends on donor and acceptor labels being close together.

Where a name gives a salt, the structure may show the parent alone.

Turning to `CCS(=O)(=O)N1CCC(c2c[nH]c3c(C(N)=O)cc(-c4ccc(N5CCCC5)nc4)cc23)CC1` [Example 224, 3-[1-(ethylsulfonyl)-4-piperidinyl]-5-[6-(1-pyrrolidinyl)-3-pyridinyl]-1H-indole-7-carboxamide trifluoroacetate], the IC50 in assay [1] was over 1 µM; in assay [2], at most 10 µM.

Regarding `CCCNc1ccc(-c2cc(C(N)=O)c3[nH]cc(C4CCN(S(=O)(=O)CC)CC4)c3c2)cn1` [Example 227, 3-[1-(ethylsulfonyl)-4-piperidinyl]-5-[6-(propylamino)-3-pyridinyl]-1H-indole-7-carboxamide trifluoroacetate], the IC50 in assay [1] is at most 1.5 µM; in assay [2] it was at most 10 µM.

On to `CCS(=O)(=O)N1CCC(c2c[nH]c3c(C(N)=O)cc(-c4csc(CNC)c4)cc23)CC1` [Example 230, 3-[1-(ethylsulfonyl)-4-piperidinyl]-5-{5-[(methylamino)methyl]-3-thienyl}-1H-indole-7-carboxamide trifluoroacetate], for which the IC50 in assay [1] was at most 1.5 µM; in assay [2] it was at most 10 µM.

In the case of `CCS(=O)(=O)N1CCC(c2c[nH]c3c(C(N)=O)cc(-c4csc(CNC(C)C)c4)cc23)CC1` [Example 231, 3-[1-(ethylsulfonyl)-4-piperidinyl]-5-(5-{[(1-methylethyl)amino]methyl}-3-thienyl)-1H-indole-7-carboxamide trifluoroacetate], the IC50 was at most 1.5 µM in assay [1] and at most 10 µM in assay [2].

In the case of `CCS(=O)(=O)N1CCC(c2c[nH]c3c(C(N)=O)cc(-c4csc(CN5CCCC5)c4)cc23)CC1` [Example 232, 3-[1-(ethylsulfonyl)-4-piperidinyl]-5-[5-(1-pyrrolidinylmethyl)-3-thienyl]-1H-indole-7-carboxamide trifluoroacetate], the IC50 is at most 1.5 µM in assay [1] and at most 10 µM in assay [2].

As to `CCNCc1cc(-c2cc(C(N)=O)c3[nH]cc(C4CCN(S(=O)(=O)CC)CC4)c3c2)cs1` [Example 233, 5-{5-[(ethylamino)methyl]-3-thienyl}-3-[1-(ethylsulfonyl)-4-piperidinyl]-1H-indole-7-carboxamide trifluoroacetate], the IC50 in assay [1] was at most 1.5 µM; in assay [2] it was at most 10 µM.

As for `CCS(=O)(=O)N1CCC(c2c[nH]c3c(C(N)=O)cc(-c4csc(CN[C@H](C)CO)c4)cc23)CC1` [Example 234, 3-[1-(ethylsulfonyl)-4-piperidinyl]-5-[5-({[(1R)-2-hydroxy-1-methylethyl]amino}methyl)-3-thienyl]-1H-indole-7-carboxamide trifluoroacetate (salt)], the IC50 in assay [1] was at most 1.5 µM; in assay [2], at most 10 µM.

`CCS(=O)(=O)N1CCC(c2c[nH]c3c(C(N)=O)cc(-c4csc(CN5CCCCC5)c4)cc23)CC1` [Example 235, 3-[1-(ethylsulfonyl)-4-piperidinyl]-5-[5-(1-piperidinylmethyl)-3-thienyl]-1H-indole-7-carboxamide trifluoroacetate]: the IC50 in assay [1] was at most 1.5 µM; in assay [2] it was at most 10 µM.

`CCS(=O)(=O)N1CCC(c2c[nH]c3c(C(N)=O)cc(-c4csc(CN5CCOCC5)c4)cc23)CC1` [Example 236, 3-[1-(ethylsulfonyl)-4-piperidinyl]-5-[5-(4-morpholinylmethyl)-3-thienyl]-1H-indole-7-carboxamide trifluoroacetate]: the IC50 is at most 1.5 µM in assay [1] and at most 10 µM in assay [2].

Regarding `CCS(=O)(=O)N1CCC(c2c[nH]c3c(C(N)=O)cc(-c4coc(CNC)c4)cc23)CC1` [Example 237, 3-[1-(ethylsulfonyl)-4-piperidinyl]-5-{5-[(methylamino)methyl]-3-furanyl}-1H-indole-7-carboxamide trifluoroacetate], the figures for the IC50 in assay [1] and in assay [2] were at most 1.5 µM and at most 10 µM, respectively.

With `CCS(=O)(=O)N1CCC(c2c[nH]c3c(C(N)=O)cc(-c4csc(C(C)N5CCCC5)c4)cc23)CC1` (centres unmarked) [Example 238, 3-[1-(ethylsulfonyl)-4-piperidinyl]-5-{5-[1-(1-pyrrolidinyl)ethyl]-3-thienyl}-1H-indole-7-carboxamide trifluoroacetate], the IC50 is at most 1.5 µM in assay [1] and at most 10 µM in assay [2].

As to `CCS(=O)(=O)N1CCC(c2c[nH]c3c(C(N)=O)cc(-c4ccc(CN5CCCC5)s4)cc23)CC1` [Example 239, 3-[1-(ethylsulfonyl)-4-piperidinyl]-5-[5-(1-pyrrolidinylmethyl)-2-thienyl]-1H-indole-7-carboxamide trifluoroacetate], the IC50 in assay [1] is at most 1.5 µM; in assay [2] it was at most 10 µM.

Regarding `CCS(=O)(=O)N1CCC(c2c[nH]c3c(C(N)=O)cc(-c4ccc(CN(C)C)s4)cc23)CC1` [Example 240, 5-{5-[(dimethylamino)methyl]-2-thienyl}-3-[1-(ethylsulfonyl)-4-piperidinyl]-1H-indole-7-carboxamide trifluoroacetate], the IC50 in assay [1] is at most 1.5 µM; in assay [2], at most 10 µM.

Consider `CCCNCc1ccc(-c2cc(C(N)=O)c3[nH]cc(C4CCN(S(=O)(=O)CC)CC4)c3c2)s1` [Example 241, 3-[1-(ethylsulfonyl)-4-piperidinyl]-5-{5-[(propylamino)methyl]-2-thienyl}-1H-indole-7-carboxamide trifluoroacetate], for which the results for the IC50 in assay [1] and in assay [2] were at most 1.5 µM and at most 10 µM, respectively.

For `CCN(CC)Cc1ccc(-c2cc(C(N)=O)c3[nH]cc(C4CCN(S(=O)(=O)CC)CC4)c3c2)s1` [Example 242, 5-{5-[(diethylamino)methyl]-2-thienyl}-3-[1-(ethylsulfonyl)-4-piperidinyl]-1H-indole-7-carboxamide trifluoroacetate], the IC50 was at most 1.5 µM in assay [1] and at most 10 µM in assay [2].

In the case of `CCS(=O)(=O)N1CCC(c2c[nH]c3c(C(N)=O)cc(-c4coc(CNCC(C)(C)C)c4)cc23)CC1` [Example 244, 5-(5-{[(2,2-dimethylpropyl)amino]methyl}-3-furanyl)-3-[1-(ethylsulfonyl)-4-piperidinyl]-1H-indole-7-carboxamide trifluoroacetate], the IC50 in assay [1] is at most 1.5 µM; in assay [2], at most 10 µM.

Turning to `CCS(=O)(=O)N1CCC(c2c[nH]c3c(C(N)=O)cc(-c4coc(CNCC(C)C)c4)cc23)CC1` [Example 245, 3-[1-(ethylsulfonyl)-4-piperidinyl]-5-(5-{[(2-methylpropyl)amino]methyl}-3-furanyl)-1H-indole-7-carboxamide trifluoroacetate], the IC50 in assay [1] was at most 1.5 µM; in assay [2], at most 10 µM.

With `CCS(=O)(=O)N1CCC(c2c[nH]c3c(C(N)=O)cc(-c4coc(CNCC5CCCC5)c4)cc23)CC1` [Example 246, 5-(5-{[(cyclopentylmethyl)amino]methyl}-3-furanyl)-3-[1-(ethylsulfonyl)-4-piperidinyl]-1H-indole-7-carboxamide trifluoroacetate], the IC50 in assay [1] was at most 1.5 µM; in assay [2], at most 10 µM.

Consider `CCS(=O)(=O)N1CCC(c2c[nH]c3c(C(N)=O)cc(-c4coc(CN5CCCC5)c4)cc23)CC1` [Example 247, 3-[1-(ethylsulfonyl)-4-piperidinyl]-5-[5-(1-pyrrolidinylmethyl)-3-furanyl]-1H-indole-7-carboxamide trifluoroacetate], for which the IC50 in assay [1] is at most 1.5 µM; in assay [2] it was at most 10 µM.

Turning to `CCN(CC)Cc1cc(-c2cc(C(N)=O)c3[nH]cc(C4CCN(S(=O)(=O)CC)CC4)c3c2)co1` [Example 248, 5-{5-[(diethylamino)methyl]-3-furanyl}-3-[1-(ethylsulfonyl)-4-piperidinyl]-1H-indole-7-carboxamide trifluoroacetate], the IC50 in assay [1] was at most 1.5 µM; in assay [2], at most 10 µM.

As for `CCS(=O)(=O)N1CCC(c2c[nH]c3c(C(N)=O)cc(-c4ncc(CN5CCCC5)s4)cc23)CC1` [Example 249, 3-[1-(ethylsulfonyl)-4-piperidinyl]-5-[5-(1-pyrrolidinylmethyl)-1,3-thiazol-2-yl]-1H-indole-7-carboxamide trifluoroacetate], the IC50 was over 1 µM in assay [1] and at most 10 µM in assay [2].

In the case of `CCS(=O)(=O)N1CCC(c2c[nH]c3c(C(N)=O)cc(-c4csc(C(C(C)C)N5CCCC5)c4)cc23)CC1` (centres unmarked) [Example 250, 3-[1-(ethylsulfonyl)-4-piperidinyl]-5-{5-[2-methyl-1-(1-pyrrolidinyl)propyl]-3-thienyl}-1H-indole-7-carboxamide trifluoroacetate], the figures for the IC50 in assay [1] and in assay [2] were at most 1.5 µM and at most 10 µM, respectively.

The values above are taken from US8063071B2 (GlaxoSmithKline, LLC, priority 2007, dated 2011).
